According to patent publication US20060116390A1, “Hepatitis c virus inhibitors” (priority 2003, published 2006):
Read-outs that look alike come from different tables or passages of the source.

System: HCV proteins in Rep5.1 cells (replicon cell line)
Assay: Inhibitory activity of HCV: cell-based ELISA in replicon cell line Rep5.1 (decrease of HCV proteins)
Set-up: species or system hepatitis C virus
Conditions: Rep5.1 cells, 72 hours with drug
Summary of the method: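 Rep5.1 replicon cells (5000/well, DMEM-10 with 500 μg/ml G418) were given serially diluted drug 4 h after seeding. After 72 h, cells were fixed in methanol/acetone and HCV proteins detected by cell-based ELISA using replicon-specific patient plasma antibodies. IC50 is the concentration giving 50% protein decrease versus the no-drug control.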

[1] = Hepatitis C virus, 72 h, concentration at which 50% of HCV proteins was decreased, Table 2, read-out: IC50
[2] = Hepatitis C virus, 72 h, decrease of HCV proteins measured by HCV antibody, Table 1, read-out: Level (IC50 values classified)
[3] = concentration at which 50% of HCV proteins was decreased, Table 2, read-out: IC50

Row | SMILES | IC50 [1] [nM] | IC50 [2] [nM] | IC50 [3] [nM]
1 | CC1=C(C(=O)OCCc2ccsc2)C(C(F)F)NC(=S)N1 (stereo not shown) [80′, 4-difluoromethyl-6-methyl-2-thioxo-1,2,3,4-tetrahydro-pyrimidine-5-carboxylic acid 2-thiophen-3-yl-ethyl ester] | 11000 | 10000 to 20000 | 
2 | CC1=C(C(=O)OC2Cc3ccccc3C2)CNC(=S)N1 [Compound 124, 6-methyl-2-thioxo-1,2,3,4-tetrahydro-pyrimidine-5-carboxylic acid indan-2-yl ester] | 800 | < 1000 | 
3 | CC1=C(C(=O)OCC#Cc2ccccc2)C(CF)NC(=S)N1 (stereo not shown) [45′, 4-fluoromethyl-6-methyl-2-thioxo-1,2,3,4-tetrahydro-pyrimidine-5-carboxylic acid 3-phenyl-prop-2-inyl ester] |  |  | 800
4 | CC(=O)OCC1NC(=S)NC(C)=C1C(=O)OCCCCc1ccsc1 (stereo not shown) [26″, 4-acetoxymethyl-6-methyl-2-thioxo-1,2,3,4-tetrahydro-pyrimidine-5-carboxylic acid 4-thiophen-3-yl-butyl ester] | 2000 | 1000 to 10000 | 
5 | CC1=C(C(=O)OCCc2cccc([N+](=O)[O-])c2)CNC(=S)N1 [14′, 6-methyl-2-thioxo-1,2,3,4-tetrahydro-pyrimidine-5-carboxylic acid 2-(3-nitro-phenyl)-ethyl ester] | 700 | < 1000 | 
6 | CC1=C(C(=O)OCc2ccc(C)s2)CNC(=S)N1 [Compound 232, 6-methyl-2-thioxo-1,2,3,4-tetrahydro-pyrimidine-5-carboxylic acid 5-methyl-thiophen-2-ylmethyl ester] | 20000 | 10000 to 20000 | 
7 | CC1=C(C(=O)OCc2noc(C)n2)CNC(=S)N1 [30′, 6-methyl-2-thioxo-1,2,3,4-tetrahydro-pyrimidine-5-carboxylic acid 5-methyl-[1,2,4]oxadiazol-3-ylmethyl ester] | > 100000 | > 20000 | 
8 | CC1=C(C(=O)OCc2cc(F)cc(F)c2)C(CF)NC(=S)N1 (stereo not shown) [69′, 4-fluoromethyl-6-methyl-2-thioxo-1,2,3,4-tetrahydro-pyrimidine-5-carboxylic acid 3,5-difluoro-benzyl ester] | 3000 | 1000 to 10000 | 
9 | CC1=C(C(=O)OCc2cccc(C(F)(F)F)c2)C(CO)NC(=S)N1 (stereo not shown) [51″, 4-hydroxymethyl-6-methyl-2-thioxo-1,2,3,4-tetrahydro-pyrimidine-5-carboxylic acid 3-trifluoromethyl-benzyl ester] | 2300 | 1000 to 10000 | 
10 | CC1=C(C(=O)OCc2cc(Cl)ccc2[N+](=O)[O-])C(CO)NC(=S)N1 (stereo not shown) [47″, 4-hydroxymethyl-6-methyl-2-thioxo-1,2,3,4-tetrahydro-pyrimidine-5-carboxylic acid 5-chloro-2-nitro-benzyl ester] | > 100000 | > 20000 | 
11 | CC1=C(C(=O)OCc2cccc(C)c2)CNC(=S)N1 [Compound 90, 6-methyl-2-thioxo-1,2,3,4-tetrahydro-pyrimidine-5-carboxylic acid 3-methyl-benzyl ester] | 400 | < 1000 | 
12 | CCOC(=O)CCCCCOC(=O)C1=C(C)NC(=S)NC1 [Compound 197, 6-methyl-2-thioxo-1,2,3,4-tetrahydro-pyrimidine-5-carboxylic acid 5-ethoxycarbonyl-pentyl ester] | > 100000 | > 20000 | 
13 | CC1=C(C(=O)OCCC2CCCC2)C(CO)NC(=S)N1 (stereo not shown) [36″, 4-hydroxymethyl-6-methyl-2-thioxo-1,2,3,4-tetrahydro-pyrimidine-5-carboxylic acid 2-cyclopentyl-ethyl ester] | 3000 | 1000 to 10000 | 
14 | CC1=C(C(=O)OCc2ccc(Cl)s2)CNC(=S)N1 [Compound 233, 6-methyl-2-thioxo-1,2,3,4-tetrahydro-pyrimidine-5-carboxylic acid 5-chloro-thiophen-2-ylmethyl ester] | 200 | < 1000 | 
15 | C#CCCCOC(=O)C1=C(C)NC(=S)NC1 [Compound 130, 6-methyl-2-thioxo-1,2,3,4-tetrahydro-pyrimidine-5-carboxylic acid pent-4-inyl ester] |  |  | 35000
16 | CC1=C(C(=O)OCCCc2ccc(C(F)(F)F)cc2)CNC(=S)N1 [Compound 107, 6-methyl-2-thioxo-1,2,3,4-tetrahydro-pyrimidine-5-carboxylic acid 3-(4-trifluoromethyl-phenyl)-propyl ester] | < 400 | < 1000 | 
17 | COc1ccccc1CCOC(=O)C1=C(C)NC(=S)NC1 [Compound 115, 6-methyl-2-thioxo-1,2,3,4-tetrahydro-pyrimidine-5-carboxylic acid 2-(2-methoxy-phenyl)-ethyl ester] | 700 | < 1000 | 
18 | CC1=C(C(=O)OCCCc2ccco2)CNC(=S)N1 [Compound 250, 6-methyl-2-thioxo-1,2,3,4-tetrahydro-pyrimidine-5-carboxylic acid 3-furan-2-yl-propyl ester] | 400 | < 1000 | 
19 | CC1=C(C(=O)OCCc2cccc([N+](=O)[O-])c2)C(COC(=O)OCC2COC(C)(C)O2)NC(=S)N1 (stereo not shown) [77″, 4-(2,2-dimethyl-[1,3]dioxolan-4-ylmethoxycarbonyloxymethyl)-6-methyl-2-thioxo-1,2,3,4-tetrahydro-pyrimidine-5-carboxylic acid 2-(3-nitro-phenyl)-ethyl ester] | 5600 | 1000 to 10000 | 
20 | CC1=C(C(=O)OCc2cccc(SC(F)(F)F)c2)CNC(=S)N1 [Compound 164, 6-methyl-2-thioxo-1,2,3,4-tetrahydro-pyrimidine-5-carboxylic acid 3-trifluoromethylsulfanyl-benzyl ester] | < 400 | < 1000 | 
21 | CC1=C(C(=O)OCCCc2cccs2)CNC(=S)N1 [9′, 6-methyl-2-thioxo-1,2,3,4-tetrahydro-pyrimidine-5-carboxylic acid 3-thiophen-2-yl-propyl ester] | < 400 | < 1000 | 
22 | CC1=C(C(=O)OCCc2ccc(N(C)CC3CC3)c([N+](=O)[O-])c2)C(CO)NC(=S)N1 (stereo not shown) [98″, 4-Hydroxymethyl-6-methyl-2-thioxo-1,2,3,4-tetrahydro-pyrimidine-5-carboxylic acid 2-[4-(cyclopropylmethyl-methyl-amino)-3-nitro-phenyl]-ethyl ester] | 1000 | < 1000 | 
23 | CC1=C(C(=O)OCCc2c(F)cc(F)cc2F)C(CO)NC(=S)N1 (stereo not shown) [53″, 4-hydroxymethyl-6-methyl-2-thioxo-1,2,3,4-tetrahydro-pyrimidine-5-carboxylic acid 2-(2,4,6-trifluoro-phenyl)-ethyl ester] | 7000 | 1000 to 10000 | 
24 | O=C(OCCc1ccsc1)C1=C(CO)NC(=S)NC1 [67′, 6-hydroxymethyl-2-thioxo-1,2,3,4-tetrahydro-pyrimidine-5-carboxylic acid 2-thiophen-3-yl-ethyl ester] | > 100000 | > 20000 | 
25 | CC1=C(C(=O)OCCc2c(F)c(F)cc(F)c2F)C(CF)NC(=S)N1 (stereo not shown) [65′, 4-fluoromethyl-6-methyl-2-thioxo-1,2,3,4-tetrahydro-pyrimidine-5-carboxylic acid 2-(2,3,5,6-tetrafluoro-phenyl)-ethyl ester] | 1400 | 1000 to 10000 | 
26 | CCCOCC#CCOC(=O)C1=C(C)NC(=S)NC1 [Compound 237, 6-methyl-2-thioxo-1,2,3,4-tetrahydro-pyrimidine-5-carboxylic acid 4-propoxy-but-2-inyl ester] |  |  | 1700
